Experimental findings from patent US20250171432A1, “COMPOUNDS AND METHODS OF USE” (Tango Therapeutics, Inc., priority 2022, published 2025) are described below.

Broadly, the IC50 is the concentration that inhibits the measured activity by half. A higher IC50 goes with a need for much substance. For orientation: IC90 means the point of the concentration-response curve where the effect stands at 90%. Low readings indicate greater potency, high ones weaker potency.

Format in all cases: cell-based
The subject of test [1] is SDMA (PRMT5 activity) in HAP1 MTAP-intact cell line. The test can be described thus: SDMA in-cell western assay, HAP1 MTAP-intact. The settings on record: SDMA in-cell western, HAP1 MTAP-intact cells, 24 hours compound incubation. As for the experimental part: (§1) The SAM-cooperative PRMT5 inhibitor, GSK3326595, was sourced from SelleckChem and maintained as a 10 mM DMSO stock. All test compounds are maintained as 10 mM DMSO stocks
(§2) On Day 0, MTAP-intact or MTAP-deleted cells are seeded in a 384-well plate, and incubated in a humidified, 5% CO2 tissue culture incubator for 16-24 hours. On Day 1, the test compounds are dispensed to wells at defined concentrations using a Tecan D300e digital dispenser (n=4), and the volume of DMSO is normalized to highest class volume. Each plate includes wells dosed with defined concentrations of GSK33226595 as a plate control. The compounds are incubated with cells for 24 hours in a humidified, 5% CO2 tissue culture incubator.
(§3) On Day 2, the compound-treated cells are fixed with a final concentration of 4% formaldehyde. The cells are then washed/permeabilized with 1×PBS+0.1% Triton X-100, and then blocked with 5% goat serum/1×TBS.
(§4) The cells are washed with 1×PBS+0.1% Triton X-100, and then washed again with ddH20. The plates are then imaged using a NIR fluorescent imager (LiCor Odyssey).
(§5) For data analysis, the SDMA signal is normalized to the DRAQ5 signal. Assay background is determined by the signal from wells treated with 1 μM GSK3326595, and subtracted from every well. The data are plotted as % of the DMSO control wells for the MTAP-intact and the MTAP-deleted cell lines independently, and fitted to the 4-parameter logistic (4-PL) Hill equation with maximal effect constrained to 0. The fit was performed using GraphPad Prism or the default IC50 fitting procedure in Dotmatics Studies 5.4 as part of a customized data analysis protocol.

The subject of test [2] is SDMA (PRMT5 activity) in HAP1 MTAP-deleted cell line. In words: SDMA in-cell western assay, HAP1 MTAP-deleted. The note with it: for IC50 / IC90: SDMA in-cell western, HAP1 MTAP-deleted cells, 24 hours compound incubation; for Hap1 MTAP intact/deleted ratio: ratio of SDMA IC50 in HAP1 MTAP-intact to HAP1 MTAP-deleted cell line. The protocol: as §1, §2, §3, §4, §5
Test [3] concerns HAP1 MTAP-deleted cell line. The test can be described thus: Viability assay (CellTiter-Glo), HAP1 MTAP-deleted. The settings on record: HAP1 MTAP-deleted cells, 7 days. As for the experimental part:
All test compounds are maintained as 10 mM DMSO stocks.
On Day 0, MTAP-intact and MTAP-deleted cells are seeded in a 96-well plate, and incubated in a humidified, 5 or 10% CO2 tissue culture incubator for 16-24 hours. On Day 1, the test compounds are dispensed to wells at defined concentrations using a Tecan D300e digital dispenser (n=3), and the volume of DMSO is normalized to highest class volume (0.2%). The compound-treated plates are incubated for 7 days in a humidified, 5 or 10% CO2 tissue culture incubator.
On Day 7, the plates are removed from the tissue culture incubator and allowed to equilibrate to room temperature. Then either a ½% volume CellTiter-Glo Luminescent Cell Viability Assay reagent (Promega G7572) is added to each well, or the media is removed from every well and a 1:3 dilution of CellTiter-Glo 2.0 Cell Viability Assay reagent (Promega G9241) in 1×PBS is added. Ten minutes after addition, the luminescent signal is detected by an Envision plate reader. The data are plotted as % of the DMSO control wells for the MTAP-intact and the MTAP-deleted cell lines independently, and fitted to the 4-parameter logistic (4-PL) Hill equation with maximal effect constrained to 0. The fit was performed using GraphPad Prism or the default IC50 fitting procedure in Dotmatics Studies 5.4 as part of a customized data analysis protocol.

Turning to `COc1ncc(NC(=O)C(=O)N2C[C@@H](C)CC[C@@H]2c2ccc3sc(C4=CCN(C)CCC4)nc3c2)cc1C(N)=O` [Compound 46, 2-methoxy-5-(2-((2R,5S)-5-methyl-2-(2-(1-methyl-2,5,6,7-tetrahydro-1H-azepin-4-yl)benzo[d]thiazol-5-yl)piperidin-1-yl)-2-oxoacetamido)nicotinamide], the IC50 in test [1] (Homo sapiens, HAP1, 24 h) is 5 to 50 nM; in test [2] (Homo sapiens), less than 5 nM; in test [3] (Homo sapiens, 168 h), less than 100 nM. Also, the IC90 in test [2] (Homo sapiens) was less than 75 nM. The “Hap1 MTAP intact/deleted ratio” value in test [2] was “B (“B” indicates an IC50 ratio greater than or equal to 15 fold but lower than 30 fold)”.
Taken in the same sequence, the figures for `COc1ncc(NC(=O)C(=O)N2C[C@@H](C)CC[C@@H]2c2ccc3sc([C@H](C)N(C)C)nc3c2)cc1C(N)=O` [Compound 96, 2-methoxy-5-[[2-oxo-2-[(2R,5S)-5-methyl-2-[2-[(1S)-1-(dimethylamino)ethyl]-1,3-benzothiazol-5-yl]-1-piperidyl]acetyl]amino]pyridine-3-carboxamide] were more than 50 nM, 5 to 50 nM, less than 100 nM, 75 to 125 nM and “A (“A” indicates an IC50 ratio greater than or equal to 30 fold)”.
Taken in the same sequence, the figures for `COc1ncc(NC(=O)C(=O)N2C[C@@H](C)CC[C@@H]2c2ccc3sc([C@H]4CN(C)C(C)(C)C4)nc3c2)cc1C(N)=O` [Compound 65, 2-methoxy-5-[[2-oxo-2-[(2R,5S)-5-methyl-2-[2-[(3R)-1,5,5-trimethylpyrrolidin-3-yl]-1,3-benzothiazol-5-yl]-1-piperidyl]acetyl]amino]pyridine-3-carboxamide] were more than 50 nM, less than 5 nM, less than 100 nM, less than 75 nM and “B (“B” indicates an IC50 ratio greater than or equal to 15 fold but lower than 30 fold)”.
For `CCc1cc(NC(=O)C(=O)N2C[C@@H](C)CC[C@@H]2c2ccc3cn(C4CCN(C)C(C)(C)C4)nc3c2)cnc1N` (single isomer, unassigned) [Compound 115], the IC50 is 5 to 50 nM in test [1], less than 5 nM in test [2] and less than 100 nM in test [3]. The compound further gave an IC90 in test [2] of less than 75 nM.
As for `CCc1cc(NC(=O)C(=O)N2C[C@@H](C)CC[C@@H]2c2ccc3cn([C@H]4C[C@H](C)CN(C)C4)nc3c2)cnc1N` (relative stereo) [Compound 85, N-(6-amino-5-ethylpyridin-3-yl)-2-((2R,5S)-2-(2-(1,5-dimethylpiperidin-3-yl)-2H-indazol-6-yl)-5-methylpiperidin-1-yl)-2-oxoacetamide], the IC50 in test [1] (Homo sapiens, HAP1, 24 h) was more than 50 nM; in test [2] (Homo sapiens), less than 5 nM; in test [3] (Homo sapiens, 168 h), less than 100 nM. This compound yielded an IC90 in test [2] (Homo sapiens) of less than 75 nM. The “Hap1 MTAP intact/deleted ratio” value in test [2] is given as “A (“A” indicates an IC50 ratio greater than or equal to 30 fold)”.
With `C[C@H]1CC[C@H](c2ccc3sc(C4CCN(C)CC4)nc3c2)N(C(=O)C(=O)Nc2cnc(F)c(C(N)=O)c2)C1` [Compound 8, 2-fluoro-5-(2-((2R,5S)-5-methyl-2-(2-(1-methylpiperidin-4-yl)benzo[d]thiazol-5-yl)piperidin-1-yl)-2-oxoacetamido)nicotinamide], the IC50 in test [1] (Homo sapiens, HAP1, 24 h) is more than 50 nM; in test [2] (Homo sapiens), less than 5 nM; in test [3] (Homo sapiens, 168 h) it was less than 100 nM. In test [2] (Homo sapiens), this compound gave an IC90 of less than 75 nM. In test [2], the “Hap1 MTAP intact/deleted ratio” value is given as “B (“B” indicates an IC50 ratio greater than or equal to 15 fold but lower than 30 fold)”.
As for `CCc1cc(NC(=O)C(=O)N2C[C@@H](C)CC[C@@H]2c2ccc3cn(CCN(C)C)nc3c2)cnc1N` [Compound 38, N-(6-amino-5-ethyl-3-pyridyl)-2-oxo-2-[(2R,5S)-2-[2-[2-(dimethylamino)ethyl]indazol-6-yl]-5-methyl-1-piperidyl]acetamide], the IC50 in test [1] (Homo sapiens, HAP1, 24 h) is more than 50 nM; in test [2] (Homo sapiens), less than 5 nM; in test [3] (Homo sapiens, 168 h) it was less than 100 nM. The IC90 in test [2] (Homo sapiens) was less than 75 nM. Also, the “Hap1 MTAP intact/deleted ratio” value in test [2] is “B (“B” indicates an IC50 ratio greater than or equal to 15 fold but lower than 30 fold)”.
Regarding `COc1ncc(NC(=O)C(=O)N2C[C@@H](C)CC[C@@H]2c2ccc3sc([C@@H]4CCN(C)CC4(C)C)nc3c2)cc1C(N)=O` (single isomer, unassigned) [Compound 3], the IC50 in test [1] (Homo sapiens, HAP1, 24 h) is more than 50 nM; in test [2] (Homo sapiens) it was less than 5 nM; in test [3] (Homo sapiens, 168 h), less than 100 nM. This compound also registered an IC90 in test [2] (Homo sapiens) of less than 75 nM. Also, the “Hap1 MTAP intact/deleted ratio” value in test [2] is “B (“B” indicates an IC50 ratio greater than or equal to 15 fold but lower than 30 fold)”.
The like results for `CCc1cc(NC(=O)C(=O)N2C[C@@H](C)CC[C@@H]2c2ccc3cn([C@H]4CCN(C)C4)nc3c2)cnc1N` [Compound 117, N-(6-amino-5-ethylpyridin-3-yl)-2-((2R,5S)-5-methyl-2-(2-((S)-1-methylpyrrolidin-3-yl)-2H-indazol-6-yl)piperidin-1-yl)-2-oxoacetamide] were, in that order, more than 50 nM, 5 to 50 nM, less than 100 nM, less than 75 nM and “C (“C” indicates an IC50 ratio of less than 15 fold)”.
On to `CCc1cc(NC(=O)C(=O)N2C[C@@H](C)CC[C@@H]2c2ccc3sc(C4CN(C)CCN4C)nc3c2)cnc1N` (mixture of isomers) [Compound 70, N-(6-amino-5-ethylpyridin-3-yl)-2-((2R,5S)-2-(2-(1,4-dimethylpiperazin-2-yl)benzo[d]thiazol-5-yl)-5-methylpiperidin-1-yl)-2-oxoacetamide], for which the IC50 in test [1] (Homo sapiens, HAP1, 24 h) was more than 50 nM; in test [2] (Homo sapiens), 5 to 50 nM; in test [3] (Homo sapiens, 168 h), less than 100 nM. The compound also had an IC90 in test [2] (Homo sapiens) of less than 75 nM. The “Hap1 MTAP intact/deleted ratio” value in test [2] was “B (“B” indicates an IC50 ratio greater than or equal to 15 fold but lower than 30 fold)”.
Consider `COc1ncc(NC(=O)C(=O)N2C[C@@H](C)CC[C@@H]2c2ccc3sc([C@@H](C)CN4CCCC4)nc3c2)cc1C(N)=O` [Compound 62, 2-methoxy-5-[[2-oxo-2-[(2R,5S)-5-methyl-2-[2-[(1S)-1-methyl-2-pyrrolidin-1-yl-ethyl]-1,3-benzothiazol-5-yl]-1-piperidyl]acetyl]amino]pyridine-3-carboxamide], for which the IC50 in test [1] (Homo sapiens, HAP1, 24 h) was more than 50 nM; in test [2] (Homo sapiens), less than 5 nM; in test [3] (Homo sapiens, 168 h), less than 100 nM. In test [2] (Homo sapiens), this compound had an IC90 of less than 75 nM. In addition, the “Hap1 MTAP intact/deleted ratio” value in test [2] is “A (“A” indicates an IC50 ratio greater than or equal to 30 fold)”.
Taken in the same sequence, the figures for `CCc1cc(NC(=O)C(=O)N2C[C@@H](C)CC[C@@H]2c2ccc3nn([C@@H]4CCN(C)C(C)(C)C4)cc3c2)cnc1N` [Compound 108] were 5 to 50 nM, less than 5 nM, less than 100 nM, less than 75 nM and “B (“B” indicates an IC50 ratio greater than or equal to 15 fold but lower than 30 fold)”.
Regarding `COc1ncc(NC(=O)C(=O)N2C[C@@H](C)CC[C@@H]2c2ccc3cn(C4CCOCC4)nc3c2)cc1C(N)=O` [Compound 107, 2-methoxy-5-[[2-oxo-2-[(2R,5S)-5-methyl-2-(2-tetrahydropyran-4-ylindazol-6-yl)-1-piperidyl]acetyl]amino]pyridine-3-carboxamide], the IC50 in test [1] (Homo sapiens, HAP1, 24 h) is more than 50 nM; in test [2] (Homo sapiens) it was 5 to 50 nM; in test [3] (Homo sapiens, 168 h) it was 100 to 1000 nM. The IC90 in test [2] (Homo sapiens) lay in the range of 75 to 125 nM. Further, the “Hap1 MTAP intact/deleted ratio” value in test [2] is given as “A (“A” indicates an IC50 ratio greater than or equal to 30 fold)”.
